Reference: paper PMC7065195 (2020)

Key:
[1] = system: poly dAdT–poly dAdT (poly(dA-dT)2, AT-DNA) (DNA, polymer) AT; assay: UV thermal melting at 260 nm; conditions: Na+ (sodium cacodylate, I=0.05 M); pH 7.0; ratio r=[compound]/[polynucleotide]=0.1; per base
[2] = system: poly A–poly U (poly rA–poly rU, AU-RNA) (RNA, polymer) A/U; assay: UV thermal melting at 260 nm; conditions: Na+ (sodium cacodylate, I=0.05 M); pH 7.0; ratio r=[compound]/[polynucleotide]=0.1; per base

Cc1cc(-c2ccc(-c3ccc(-c4cc(C)c(B(c5c(C)cc([N+](C)(C)C)cc5C)c5c(C)cc([N+](C)(C)C)cc5C)c(C)c4)s3)s2)cc(C)c1B(c1c(C)cc([N+](C)(C)C)cc1C)c1c(C)cc([N+](C)(C)C)cc1C
ΔTm [1]: +10.0 ± 0.5 °C | ΔTm [2]: +9.5 ± 0.5 °C
